Laboratory results taken from PubChem BioAssay (NCI).
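Cells were grown in 96-well plates and exposed to each compound for 48 hours at five concentrations; endpoints were interpolated linearly between bracketing concentrations, or set to the highest concentration if not reached. The concentration for full growth arrest is given as TGI.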

What was measured:
Experiment in all cases: inhibition of tumour cell growth, NCI panel, 48 h
MCF7 breast = system: MCF7 breast
NCI-H460 lung = system: NCI-H460 lung
HOP-92 NSCLC = system: HOP-92 NSCLC
K-562 leukemia = system: K-562 leukemia
U251 CNS = system: U251 CNS
CCRF-CEM leukemia = system: CCRF-CEM leukemia
SK-MEL-28 melanoma = system: SK-MEL-28 melanoma
OVCAR-3 ovarian = system: OVCAR-3 ovarian
UACC-62 melanoma = system: UACC-62 melanoma
NCI/ADR-RES ovarian = system: NCI/ADR-RES ovarian
SN12C renal = system: SN12C renal
BT-549 breast = system: BT-549 breast
ACHN renal = system: ACHN renal
A549 NSCLC = system: A549 NSCLC
SF-295 CNS = system: SF-295 CNS
UACC-257 melanoma = system: UACC-257 melanoma
NCI-H226 lung = system: NCI-H226 lung
HOP-62 NSCLC = system: HOP-62 NSCLC
SK-OV-3 ovarian = system: SK-OV-3 ovarian
OVCAR-8 ovarian = system: OVCAR-8 ovarian
MDA-MB-231 breast = system: MDA-MB-231 breast
HCT-15 colon = system: HCT-15 colon
CAKI-1 renal = system: CAKI-1 renal
COLO 205 colon = system: COLO 205 colon
A498 renal = system: A498 renal
IGROV1 ovarian = system: IGROV1 ovarian
DU-145 prostate = system: DU-145 prostate
LOX IMVI melanoma = system: LOX IMVI melanoma
NCI-H522 lung = system: NCI-H522 lung
OVCAR-4 ovarian = system: OVCAR-4 ovarian
NCI-H23 lung = system: NCI-H23 lung
786-0 renal = system: 786-0 renal
MDA-N = system: MDA-N
RPMI-8226 leukemia = system: RPMI-8226 leukemia
T-47D breast = system: T-47D breast
KM12 colon = system: KM12 colon
MOLT-4 leukemia = system: MOLT-4 leukemia
MDA-MB-435 = system: MDA-MB-435
SW-620 colon = system: SW-620 colon
SNB-19 CNS = system: SNB-19 CNS
OVCAR-5 ovarian = system: OVCAR-5 ovarian
EKVX NSCLC = system: EKVX NSCLC
RXF 393 renal = system: RXF 393 renal
UO-31 renal = system: UO-31 renal
SR leukemia = system: SR leukemia
HL-60(TB) leukemia = system: HL-60(TB) leukemia
SK-MEL-5 melanoma = system: SK-MEL-5 melanoma
HCT-116 colon = system: HCT-116 colon
HT29 colon = system: HT29 colon
SF-539 CNS = system: SF-539 CNS
SNB-75 CNS = system: SNB-75 CNS
PC-3 prostate = system: PC-3 prostate
M14 melanoma = system: M14 melanoma
TK-10 renal = system: TK-10 renal
SF-268 CNS = system: SF-268 CNS
HS 578T breast = system: HS 578T breast
HCC-2998 colon = system: HCC-2998 colon
SK-MEL-2 melanoma = system: SK-MEL-2 melanoma
MALME-3M melanoma = system: MALME-3M melanoma

Measured: TGI

O=C(O)CC1OCC=C2CN3CCC45c6ccccc6NC4C1C2CC35 (stereo unspecified)
not listed: HS 578T breast | HCC-2998 colon | SK-MEL-2 melanoma | MALME-3M melanoma
> 100 µM: all other assays above

COc1cc2c(cc1OCCCNC(=O)c1cc3ccccc3[nH]1)N=C[C@@H]1CCCN1C2=O
> 33.6 µM: U251 CNS
1.84 µM: KM12 colon
14.3 µM: HCT-116 colon
0.257 µM: A498 renal
11.7 µM: OVCAR-4 ovarian
1.15 µM: M14 melanoma
1.65 µM: SK-MEL-28 melanoma
5.79 µM: PC-3 prostate
0.297 µM: SK-MEL-5 melanoma
> 31.9 µM: SF-295 CNS
0.539 µM: SF-539 CNS
0.237 µM: SF-268 CNS
2.01 µM: SNB-75 CNS
> 47.5 µM: TK-10 renal
10.5 µM: HCC-2998 colon
0.716 µM: MDA-MB-435
> 34.3 µM: DU-145 prostate | HT29 colon
> 35.2 µM: MDA-MB-231 breast
> 33.3 µM: OVCAR-5 ovarian
2.96 µM: NCI-H226 lung
21.6 µM: HOP-62 NSCLC
0.562 µM: HS 578T breast
> 26.9 µM: HCT-15 colon
> 38.3 µM: SNB-19 CNS
0.559 µM: BT-549 breast
0.705 µM: UACC-62 melanoma
0.418 µM: SK-MEL-2 melanoma
14.9 µM: SN12C renal
0.0462 µM: NCI-H522 lung
1.87 µM: MDA-N
0.74 µM: IGROV1 ovarian
3.64 µM: OVCAR-8 ovarian
> 66.4 µM: UACC-257 melanoma
> 48.1 µM: MCF7 breast
9.99 µM: NCI/ADR-RES ovarian
5.68 µM: EKVX NSCLC
41.4 µM: 786-0 renal
> 60.2 µM: SK-OV-3 ovarian
not listed: CAKI-1 renal | COLO 205 colon | NCI-H23 lung | T-47D breast | RXF 393 renal | HL-60(TB) leukemia | MALME-3M melanoma
> 100 µM: all other assays above

CCCCNC(=S)Nc1nc(C(=O)NNC(=S)NCC)cs1
71.3 µM: T-47D breast
not listed: NCI-H460 lung | HOP-92 NSCLC | K-562 leukemia | SK-MEL-28 melanoma | NCI-H226 lung | SNB-19 CNS | RXF 393 renal | HL-60(TB) leukemia | HS 578T breast
> 100 µM: all other assays above

N#Cc1ccc(NC(=NCC(=O)O)Nc2cccc3ccccc23)cc1
not listed: NCI-H460 lung | HOP-92 NSCLC | U251 CNS | OVCAR-3 ovarian | NCI/ADR-RES ovarian | BT-549 breast | ACHN renal | NCI-H226 lung | A498 renal | LOX IMVI melanoma | NCI-H522 lung | OVCAR-4 ovarian | MDA-MB-435 | SNB-19 CNS | OVCAR-5 ovarian | UO-31 renal | HCT-116 colon | SF-539 CNS | HS 578T breast | SK-MEL-2 melanoma
> 10 µM: all other assays above
